{"source": "patent US20050074827A1", "about": "“Methods for identifying modulators of quorum-sensing signaling in bacteria” (priority 2003, published 2005)", "key": {"[1]": {"system": "LasR-controlled promoter PrsaL (yfp reporter) in MW1.pUM15", "assay": "Titration of yfp expression in MW1.pUM15 against autoinducer concentration", "format": "cell-based, Pseudomonas aeruginosa", "source_text": "Strain Construction. We tested whether the P. aeruginosa quorum-sensing-controlled promoter for the rsaL gene (PrsaL) can be used in high-throughput screening to identify modulators of quorum-sensing signaling. We constructed a plasmid (designated pUM15) with yfp under control of the P. aeruginosa LasR-controlled promoter PrsaL and introduced the plasmid into P. aeruginosa wild-type strain PAO1 (designated PAO1.pUM15). In PAO1.pUM15, the expression of yfp is dependent on the endogenously synthesized autoinducer, 3-oxo-C12-HSL. Thus, fluorescence will be altered if a test compound modulates any aspect of signaling, including, e.g., signal synthesis, stability, reception, or expression of LasR-dependent genes. Accordingly, we designated this assay the “Complete Signaling Assay” or CSA. […]\nMeasurement of Reporter Gene Product. We measured fluorescence with an excitation filter at 485 nm and an emission filter at 535 nm in a Tecan SPECTRAFluor Plus plate reader. […]\nExpression Depends on Autoinducer. […] We detected very little fluorescence in MW1.pUM15 culture grown in the absence of signal molecule (FIG. 1).\nThe Assay Mimics Naturally Occurring Quorum-Sensing Signaling. […] We observed that fluorescence in MW1.pUM15 is half-maximal at 200±100 nM 3-oxo-C12-HSL (FIG. 2). […] We also confirmed that expression of yfp is quorum-sensing dependent by graphing fluorescence per cell against cell density (FIG. 3). […]"}, "[2]": {"conditions": "cell-based binding assay, Passador et al., J. Bacteriol. 178: 5995-6000 (1996); read-out: half-maximal saturation; cited from earlier work"}}}
{"smiles": "CCCCCCCCCC(=O)CC(=O)NC1CCOC1=O", "note": "(stereo not drawn) [3-oxo-C12-HSL]", "values": [{"measurement": "EC50", "setting": "[1]; MW1.pUM15, yfp fluorescence, FIG. 2, read-out: 3-oxo-C12-HSL concentration at which fluorescence in MW1.pUM15 is half-maximal", "value": "200 ± 100", "unit": "nM"}, {"measurement": "effect on yfp expression in MW1.pUM15", "setting": "[1]; addition of autoinducer, 0.9 mM per FIG. 1 legend", "value": "restored expression of yfp"}, {"measurement": "Kd", "setting": "[2]", "value": 200, "unit": "nM"}]}
